Measured values as given in patent US20060093690A1, “Novel therapeutic use of polypodium extracts” (Especialidades Farmaceuticas Centrum, S.A., priority 2002, published 2006).

How the values were obtained:
[1] = test system: TFG-β expression; conditions: rats, Peyronie's disease by injection of TGF-β in penis; cited from earlier work
[2] = test system: Peyronie's patients; conditions: 60 patients, 10 months; cited from earlier work
[3] = test system: Peyronie's patients; assay: Clinical trial on 34 Peyronie's patients for 6 months, Polypodium versus Tamoxifen; format: in vivo, human
Protocol: (§1) The obtained results were statically significant.
(§2) The patients of Polypodium group were treated with 720 mg of Polypodium extract, orally, at 8-hourly intervals.
(§3) The patients of Tamoxifen group were treated with 20 mg of Tamoxifen, orally, at 24-hourly intervals.
The age was similar in both groups.
The plaque was assessed by physical examination and penis ecography.
Penis incurvation was assessed by photograph.

[4] = on administration; cited from earlier work
[5] = test system: Peyronie's disease; conditions: comparative clinical study; cited from earlier work
[6] = test system: IL-10; assay: IL-10 production in Peyronie's patients post treatment; format: in vivo, human; conditions: compared with initial values
Protocol: as §1, §2, §3
Also, a 17% post treatment decrease in IL-10 production in Polypodium group when compared with initial values, against 79% in Tamoxifen group.

[7] = test system: TGF-β; assay: TGF-β production in Peyronie's patients post treatment; format: in vivo, human; conditions: compared with initial values, Tamoxifen group
Protocol: as §1, §2, §3
A 22% post treatment decrease in TGF-β production was found in Polypodium group when compared with initial values, against 5% in Tamoxifen group.

[8] = 6 months, oral, assessed by photograph
[9] = 6 months, oral, physical examination and penis ecography

In the case of COc1cc2c(c(OC)c1OC)-c1ccc(OC)c(=O)cc1[C@@H](NC(C)=O)CC2 [colchicin], the “effect on TFG-β expression” value [1] is given as “reduces TFG-β expression”, the “penis incurvature improved, % of patients” value [2] is given as 30% and the “penis incurvature no change/unchanged, % of patients” value [2] is given as 48%. For the same molecule, the “penis incurvature worse/deteriorated, % of patients” value [2] was 22%.
In the case of CC/C(=C(\c1ccccc1)c1ccc(OCCN(C)C)cc1)c1ccccc1 [Tamoxifen], the “Coital difficulty, Improv, % of patients” value ([3]; 6 months, oral) is reported as 40%, the “Coital difficulty, Improv, number of patients” value ([3]; 6 months, oral) is reported as 6 and the “Coital difficulty, Same, % of patients” value ([3]; 6 months, oral) is reported as 20%. For the same molecule, the “Coital difficulty, Same, number of patients” value ([3]; 6 months, oral) was 3, the “Coital difficulty, Worse, % of patients” value ([3]; 6 months, oral) was 40% and the “Coital difficulty, Worse, number of patients” value ([3]; 6 months, oral) was 6. For the same molecule, the “Pain, Improv, % of patients” value ([3]; 6 months, oral) was 66%, the “Pain, Improv, number of patients” value ([3]; 6 months, oral) was 10 and the “Pain, Same, % of patients” value ([3]; 6 months, oral) was 33%. The “Pain, Same, number of patients” value ([3]; 6 months, oral) was 5, the “Pain, Worse, number of patients” value ([3]; 6 months, oral) was 0 and the “Penis incurvation, Same, % of patients” value ([3]; 6 months, oral) was 33%. The “Penis incurvation, Same, number of patients” value ([3]; 6 months, oral) was 5, the “Penis incurvation, Worse, % of patients” value ([3]; 6 months, oral) was 20% and the “Penis incurvation, Worse, number of patients” value ([3]; 6 months, oral) was 3. The “Plaque, Same, % of patients” value ([3]; 6 months, oral) was 53%, the “Plaque, Same, number of patients” value ([3]; 6 months, oral) was 8 and the “Plaque, Worse, % of patients” value ([3]; 6 months, oral) was 20%. The “Plaque, Worse, number of patients” value ([3]; 6 months, oral) was 3, the “Penis incurvation, Improv, % of patients” value [3, 8] was 46% and the “Penis incurvation, Improv, number of patients” value [3, 8] was 7. For the same molecule, the “Plaque, Improv, % of patients” value [3, 9] was 27%, the “Plaque, Improv, number of patients” value [3, 9] was 4 and the “patients of group satisfied after treatment” value ([3]; after treatment) was 45%. The adverse effects [4] was “diminution of sexual desire and diminution of the eyaculate”, the results versus placebo [5] was “similar” and the “post treatment decrease in IL-10 production” value [6] was 79%. The “post treatment decrease in TGF-β production” value [7] was 5%.
